Experimental findings from US20220071947A1, “PHARMACEUTICAL APPLICATION OF DIMYRICETIN-BASED DISELENIDE” (Shanghai Spark Pharmaceutical Co., Ltd., priority 2020, published 2022) are described below.

SMILES strings stand for the structures. In brackets after ≈: the same amount, converted by molar mass. Where two headings read alike, the source gives them in different places.

Experiment [1] relates to SW480 primary colorectal cancer cells. In words: CCK-8 in vitro anti-tumor screening, primary colorectal cancer cells. The format is cell-based, human. Here is the method:
(§1) In vitro screening of the efficacy of dimyricetin-based diselenide on 7 different human tumor cells (HEP3B2.1.7, NCI-H460, CALU-3, SW480, SIHA, PC-3, MGC80-3) was performed. Using the CCK-8 detection method, 10 drug concentrations was designed, and each concentration was arranged in 3 re-holes. […], 24 h, 48 h, and 72 h, was selected according to dynamic microscopy. The positive drug was cisplatin. Cisplatin concentration gradient designed: 0 (i.e., the solvent control group), 1 μM, 5 μM, 10 μM, 20 μM, 40 μM, 60 μM, 80 μM, 100 μM, 135 μM. Dimyricetin-based diselenide drug concentration gradient designed: 0 (i.e., solvent control group), 1 μg/ml, 5 μg/ml, 25 μg/ml, 50 μg/ml, 75 μg/ml, 100 μg/ml, 125 μg/ml, 150 μg/ml, 200 μg/ml.
(§2) Step 1. Cell culture. […]
(§3) Step 3. […] Step 3-4, measuring the absorbance value: a microplate reader was used to measure the 450 nm absorbance value, and the inhibitory rate of the drug on the cells was calculated according to the formula. […]
(§4) Experimental group: the absorbance value of the cells and CCK-8 solution in the experimental group
(§5) Negative control: the absorbance value of control cells and CCK-8 solution
(§6) Blank control: absorbance value of medium and CCK-8 solution […]

Experiment [2] has as its system MGC80-3(MGC-803) human gastric cancer cells. In words: CCK-8 in vitro anti-tumor screening, human gastric cancer cells. In kind it is cell-based. The settings on record: 24 h. Here is the method: as §1, §2, §3, §4, §5, §6
The test system of experiment [3] is Siha human cervical squamous cell carcinoma cells. In words: CCK-8 in vitro anti-tumor screening, human cervical squamous cell carcinoma cells. The format is cell-based. Here is the method:
as §1, §2, §3, §4, §5, §6

In experiment [4] the test system is HEP3B2.1.7 human liver cancer cells. In words: CCK-8 in vitro anti-tumor screening, human liver cancer cells. The format is cell-based. The settings on record: HEP3B cells. Here is the method:
as §1, §2, §3, §4, §5, §6

Experiment [5] has as its system PC-3 human prostate cancer cells. In words: CCK-8 in vitro anti-tumor screening, human prostate cancer cells. The note with it: pc-3 cells. In kind it is cell-based. Here is the method: as §1, §2, §3, §4, §5, §6
The subject of experiment [6] is NCI-H460 human lung cancer cells (large cell lung cancer). In words: CCK-8 in vitro anti-tumor screening, human lung cancer cells (large cell lung cancer). In kind it is cell-based. Here is the method: as §1, §2, §3, §4, §5, §6
The next experiment deals with 2019-nCoV-M^pro protease (Severe acute respiratory syndrome coronavirus 2, UniProt P0DTD1). In words: M^pro protease activity inhibition, fluorescence resonance energy transfer method. The note with it: 30 nM protease, 20 μM substrate, 10 min preincubation at 30° C. In kind it is biochemical. From the text: This example was the detection of M^pro protease activity inhibition of the targeted 2019-nCoV virus.
The mechanism is: after the new coronavirus invades the cell, it will use the host cell to synthesize two ultra-long replicase polypeptides (pp1a and pp1ab) necessary for self-replication. The replicase polypeptide needs to be further cut into multiple proteins (such as RdRp, helicase, etc.), and then assembled into the replication and transcription machinery required for the virus to initiate the replication of its own genetic material. M^pro has at least 11 cleavage sites on the replicase polypeptide. […]
The fluorescence resonance energy transfer method was used to evaluate the inhibitory activity of dimyricetin-based diselenide on 2019-nCoV-M^pro protease.
Specific detection method: the volume of the entire enzymatic reaction system is 120 μL, the final concentration of protease is 30 nM, and the final concentration of substrate is 20 μM. […] The substrate was added and quickly placed in the microplate reader for reading. […] The test time is 10 min, and the fluorescence value is read every 30 seconds. The final result is the first 2 minutes reading to fit the reaction rate, and compared with the control group (DMSO) to calculate the inhibition rate.

Experiment [7] deals with Calu-3 human lung adenocarcinoma cells (pleural effusion). In words: CCK-8 in vitro anti-tumor screening, human lung adenocarcinoma cells (pleural effusion). In kind it is cell-based. The note with it: calu-3 cells, 24 h. Here is the method:
as §1, §2, §3, §4, §5, §6

For the molecule `N.N.[Cl][Pt][Cl]` [Cisplatin, cisplatin, reference compound], the IC50 in experiment [1] (48 h) is 46.7 µM; in experiment [2] (MGC803 cells), 23.2 µM; in experiment [3] (48 h), 65.5 µM; in experiment [4] (48 h), 8.83 µM; in experiment [5] (48 h), 45.7 µM; in experiment [6] (48 h) it was 47.4 µM.
Consider `O=c1c(O)c(-c2cc(O)c(O)c(O)c2)oc2c([Se][Se]c3c(O)cc(O)c4c(=O)c(O)c(-c5cc(O)c(O)c(O)c5)oc34)c(O)cc(O)c12` [Dimyricetin-based diselenide, 8,8′-diselanediylbis(3,5,7-trihydroxy-2-(3,4,5-trihydroxyphenyl)-4H-1-benzopyran-4-one)], for which the IC50 in experiment [1] (Homo sapiens, 24 h) is 12.4 µg/mL; in experiment [2] (Homo sapiens, MGC-803, MGC803 cells), 9.08 µg/mL; at 2019-nCoV-M^pro protease (read-out: IC50), 807 ± 83 nM; at 2019-nCoV-M^pro protease (read-out: IC50 (μg/ml) (converted)) it was 806 nM; in experiment [3] (Homo sapiens, 24 h) it was 19.1 µg/mL; in experiment [7] it was 22.9 µg/mL (≈ 29 µM). Also, the IC50 in experiment [4] (Homo sapiens, 24 h) was determined as 25.2 µg/mL; in experiment [5] (Homo sapiens, 24 h) it was 7.72 µg/mL; in experiment [6] (Homo sapiens, NCI-H460, 24 h), 27.9 µg/mL.
